Experimental data as given in US20220017484A1, “INHIBITOR OF BRUTON TYROSINE KINASE” (BEIJING RECIPROCAPHARMACEUTICALS CO., LTD., priority 2018, published 2022).
pIC50: −log10 of the molar value. Blank lines part the entries; values can stand above or below the molecule they belong to.

What was measured:
Btk = Btk (Homo sapiens, UniProt Q06187); test: Analysis of in vitro inhibitory activity of Btk (cell-free TR-FRET kinase assay); assay type: biochemical; settings: for pIC50: cell-free TR-FRET, ATP at Km, 1 h, read-out: Efficacy (Btk IC50); for inhibitory effects against Btk (in words): summary of Table 1 efficacy data
Description: In a cell-free kinase assay, the method described below or a similar method was used to determine the half inhibitory concentration (IC50) of the compound of the present invention on Btk.
Btk kinase activity was determined using a time-resolved fluorescence resonance energy transfer (TR-FRET) methodology. Measurements were performed in a reaction volume of 50 μL using 96-well assay plates. […] The reaction was quenched by the addition of 1.2 equivalents of EDTA (relative to divalent cation) in […] of 1× Lance buffer (Perkin-Elmer). Streptavidin-APC (Perkin-Elmer) and Eu-labeled p-Tyr100 antibody (Perkin-Elmer) in 1× Lance buffer were added in a volume of 25 μL to give final concentrations of 100 nM and 2.5 nM, respectively. The mixture was allowed to incubate for 1 h. The TR-FRET signal was measured on a multimode plate reader at an excitation wavelength (λEx) of 330 nm and detection wavelengths (λEm) of 615 and 665 nm. The activity was determined by the ratio of fluorescence at 665 nm to that at 615 nm. For each compound, the enzyme activity was measured in the presence of different concentrations of the compound. Negative control reactions were performed in the absence of inhibitor in replicates of six, and two no-enzyme controls were used to determine baseline fluorescence levels. IC50 was obtained by fitting using the program Batch Ki (Kuzmic, et al. (2000), Anal. Biochem. 286:45-50).
The Example compounds 1-50 of the present invention were synthesized according to the above Synthetic Schemes I to VII. In the analysis of in vitro inhibitory activity of Btk, the IC50 values of the Example compounds 1-50 of the present invention were determined. The IC50 values are given according to the interval of the IC50 value, where “+++” means IC50<100 nM; “++” means 100 nM≤IC50<1000 nM; and “+” means 1000 nM≤IC50<10000 nM.

OCI-LY7 cells = test: Cell viability assay (CellTiter-Glo, 72 h); assay type: cell-based; settings: Homo sapiens, read-out: Results from inhibition of OCI-LY7 cells (IC50)
Description: An in vitro cell viability assay was conducted using the compounds of Examples 1-50 following the steps below:
1. After OCI-LY7 cells were recovered, they were cultured at 37° C., 5% CO2, and 95% humidity.
2. For the compounds of Examples 1-50, 8 compound solutions at different concentrations were prepared, respectively. 50 μL of the compound solution at each concentration was added to a 96-well black plate.
3. The cell concentration was adjusted to about 30,000 cells/mL. 100 μL of cell suspension was added to the 96-well plate, and mixed well. The final cell density was about 3,000 cells/well.
4. The 96-well plate was placed at 37° C., 5% CO2, and 95% humidity for 72 h.
5. The cell survival rate was measured by the method of CellTiter-Glo® Luminescent Cell Viability Assay (Promega, Cat #G7572). The fluorescence data were read on a microplate reader (EnVision™, a multi-function microplate detector, PerkinElmer).
6. The obtained fluorescence data were analyzed using GraphPad Prism software. The cell survival rate was calculated for each example compound at each concentration, and the IC50 interval of each example compound was obtained.

Btk, sequence (Q06187 whole entry): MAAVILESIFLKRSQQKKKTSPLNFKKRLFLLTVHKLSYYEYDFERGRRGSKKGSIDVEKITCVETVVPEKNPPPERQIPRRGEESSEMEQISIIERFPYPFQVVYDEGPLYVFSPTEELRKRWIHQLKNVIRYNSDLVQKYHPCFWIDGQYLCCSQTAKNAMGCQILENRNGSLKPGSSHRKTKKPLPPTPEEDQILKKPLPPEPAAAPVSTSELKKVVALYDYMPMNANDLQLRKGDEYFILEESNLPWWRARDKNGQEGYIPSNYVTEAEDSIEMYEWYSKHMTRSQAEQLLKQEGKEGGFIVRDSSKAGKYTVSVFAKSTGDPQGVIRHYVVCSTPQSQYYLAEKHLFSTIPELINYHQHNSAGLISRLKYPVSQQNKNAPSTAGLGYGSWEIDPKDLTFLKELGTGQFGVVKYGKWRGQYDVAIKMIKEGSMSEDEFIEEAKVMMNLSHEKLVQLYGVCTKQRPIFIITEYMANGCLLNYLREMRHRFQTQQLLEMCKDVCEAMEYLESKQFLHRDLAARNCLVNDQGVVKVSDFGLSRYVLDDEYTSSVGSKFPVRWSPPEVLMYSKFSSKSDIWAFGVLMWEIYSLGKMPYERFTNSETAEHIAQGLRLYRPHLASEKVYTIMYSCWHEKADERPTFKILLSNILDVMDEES

SMILES: C=CC(=O)Nc1cc(Nc2ncc3cc(-c4c(C)cc[nH]c4=O)ccc3n2)ccc1OCCOC [Example 6]
pIC50 (Btk): > 7.00
pIC50 (OCI-LY7 cells): > 6.30

SMILES: Cc1cc[nH]c(=O)c1-c1ccc2nc(Nc3cccc(NC(=O)/C=C/CN4CCCCC4)c3)ncc2c1 [Example 7]
pIC50 (Btk): > 7.00
pIC50 (OCI-LY7 cells): > 6.30

SMILES: Cc1cc[nH]c(=O)c1-c1ccc2nc(Nc3cccc(NC(=O)/C=C/CN4CCOCC4)c3)ncc2c1 [Example 8]
pIC50 (Btk): > 7.00
pIC50 (OCI-LY7 cells): > 6.30

SMILES: Cc1ccn(-c2cccc(C(F)(F)F)c2)c(=O)c1-c1ccc2nc(Nc3cccc(N)c3)ncc2c1 [Example 12]
pIC50 (Btk): 5.00 to 6.00
pIC50 (OCI-LY7 cells): > 6.30

SMILES: C=CC(=O)Nc1cccc(Nc2ncc3cc(-c4c(C)ccn(-c5cccc(C(F)(F)F)c5)c4=O)ccc3n2)c1 [Example 13]
pIC50 (Btk): 6.00 to 7.00
pIC50 (OCI-LY7 cells): > 6.30

SMILES: Cc1ccn(-c2ccc(N3CCOCC3)cc2)c(=O)c1-c1ccc2nc(Nc3cccc(N)c3)ncc2c1 [Example 14]
pIC50 (Btk): 6.00 to 7.00
pIC50 (OCI-LY7 cells): > 6.30

SMILES: C=CC(=O)Nc1cccc(Nc2ncc3cc(-c4c(C)ccn(-c5ccc(N6CCOCC6)cc5)c4=O)ccc3n2)c1 [Example 15]
pIC50 (Btk): 6.00 to 7.00
pIC50 (OCI-LY7 cells): > 6.30

SMILES: Cc1ccn(C)c(=O)c1-c1ccc2nc(Nc3cccc(N)c3)ncc2c1 [Example 16]
pIC50 (Btk): 5.00 to 6.00
pIC50 (OCI-LY7 cells): 5.60 to 6.30

SMILES: C=CC(=O)Nc1cccc(Nc2ncc3cc(-c4c(C)ccn(C)c4=O)ccc3n2)c1 [Example 17]
pIC50 (Btk): 6.00 to 7.00
pIC50 (OCI-LY7 cells): 5.60 to 6.30

SMILES: C=CC(=O)N1CCC[C@H]1C(=O)Nc1cccc(Nc2ncc3cc(-c4c(C)cc[nH]c4=O)ccc3n2)c1 [Example 21]
pIC50 (Btk): > 7.00
pIC50 (OCI-LY7 cells): > 6.30

SMILES: Cc1cc[nH]c(=O)c1-c1ccc2nc(Nc3cccc(N(C)C(=O)/C=C/CN(C)C)c3)ncc2c1 [Example 24]
pIC50 (Btk): > 7.00
inhibitory effects against Btk (in words) (Btk): particularly excellent inhibitory effects
pIC50 (OCI-LY7 cells): > 6.30

SMILES: C=CC(=O)N(CC)c1cccc(Nc2ncc3cc(-c4c(C)ccn(C(=O)OCC)c4=O)ccc3n2)c1 [Example 28]
pIC50 (Btk): > 7.00
pIC50 (OCI-LY7 cells): > 6.30

SMILES: C=CC(=O)N(CC)c1cccc(Nc2ncc3cc(-c4c(C)ccn(C(C)=O)c4=O)ccc3n2)c1 [Example 29]
pIC50 (Btk): 6.00 to 7.00
pIC50 (OCI-LY7 cells): 5.60 to 6.30

SMILES: C=CC(=O)N(CC)c1cccc(Nc2ncc3cc(-c4c(C)ccn(C(=O)N(C)C)c4=O)ccc3n2)c1 [Example 30]
pIC50 (Btk): 6.00 to 7.00
pIC50 (OCI-LY7 cells): ≤ 5.60

SMILES: C=CC(=O)N(CC)c1cccc(Nc2ncc3cc(-c4c(C)ccn(C(=O)OCc5ccccc5)c4=O)ccc3n2)c1 [Example 31]
pIC50 (Btk): > 7.00
pIC50 (OCI-LY7 cells): > 6.30

SMILES: C=CC(=O)N(CC)c1cccc(Nc2ncc3cc(-c4c(C)ccn(-c5ncco5)c4=O)ccc3n2)c1 [Example 32]
pIC50 (Btk): 6.00 to 7.00
pIC50 (OCI-LY7 cells): 5.60 to 6.30

SMILES: CCN(C(=O)/C=C/CN(C)C)c1cccc(Nc2ncc3cc(-c4c(C)cc[nH]c4=O)ccc3n2)c1 [Example 34]
pIC50 (Btk): > 7.00
inhibitory effects against Btk (in words) (Btk): particularly excellent inhibitory effects
pIC50 (OCI-LY7 cells): 5.60 to 6.30

SMILES: C=CC(=O)Nc1cc(Nc2ncc3cc(-c4c(C)cc[nH]c4=O)ccc3n2)ccc1OC [Example 36]
pIC50 (Btk): > 7.00
pIC50 (OCI-LY7 cells): > 6.30

SMILES: C=CC(=O)N(CC)c1cc(Nc2ncc3cc(-c4c(C)cc[nH]c4=O)ccc3n2)ccc1OC [Example 37]
pIC50 (Btk): > 7.00
inhibitory effects against Btk (in words) (Btk): particularly excellent inhibitory effects
pIC50 (OCI-LY7 cells): > 6.30

SMILES: C=CC(=O)N(CC)c1cc(Nc2ncc3cc(-c4c(C)cc[nH]c4=O)ccc3n2)ccc1F [Example 39]
pIC50 (Btk): > 7.00
pIC50 (OCI-LY7 cells): 5.60 to 6.30

SMILES: C=CC(=O)N(CC)c1cc(Nc2ncc3cc(-c4c(C)cc[nH]c4=O)ccc3n2)ccc1C [Example 40]
pIC50 (Btk): > 7.00
pIC50 (OCI-LY7 cells): 5.60 to 6.30

SMILES: Cc1cc[nH]c(=O)c1-c1ccc2nc(Nc3ccc4c(c3)NCCO4)ncc2c1 [Example 41]
pIC50 (Btk): > 7.00
pIC50 (OCI-LY7 cells): > 6.30

SMILES: C=CC(=O)N1CCOc2ccc(Nc3ncc4cc(-c5c(C)cc[nH]c5=O)ccc4n3)cc21 [Example 42]
pIC50 (Btk): > 7.00
pIC50 (OCI-LY7 cells): 5.60 to 6.30

Now from value to molecule, other results behind:

pIC50 (Btk): > 7.00
pIC50 (OCI-LY7 cells): > 6.30
SMILES: Cc1cc[nH]c(=O)c1-c1ccc2nc(Nc3cccc(N)c3)ncc2c1 [Example 1]

pIC50 (Btk): > 7.00
pIC50 (OCI-LY7 cells): > 6.30
SMILES: C=CC(=O)Nc1cccc(Nc2ncc3cc(-c4c(C)cc[nH]c4=O)ccc3n2)c1 [Example 2]
inhibitory effects against Btk (in words) (Btk): particularly excellent inhibitory effects

pIC50 (Btk): > 7.00
pIC50 (OCI-LY7 cells): > 6.30
SMILES: CCC(=O)Nc1cccc(Nc2ncc3cc(-c4c(C)cc[nH]c4=O)ccc3n2)c1 [Example 3]

pIC50 (Btk): > 7.00
pIC50 (OCI-LY7 cells): > 6.30
SMILES: C/C=C/C(=O)Nc1cccc(Nc2ncc3cc(-c4c(C)cc[nH]c4=O)ccc3n2)c1 [Example 4]

pIC50 (Btk): > 7.00
pIC50 (OCI-LY7 cells): > 6.30
SMILES: Cc1cc[nH]c(=O)c1-c1ccc2nc(Nc3cccc(NC(=O)/C=C/CN(C)C)c3)ncc2c1 [Example 5]
inhibitory effects against Btk (in words) (Btk): particularly excellent inhibitory effects

pIC50 (Btk): > 7.00
pIC50 (OCI-LY7 cells): 5.60 to 6.30
SMILES: Cc1cc[nH]c(=O)c1-c1ccc2nc(Nc3cccc(NC(=O)CN)c3)ncc2c1 [Example 9]

pIC50 (Btk): > 7.00
pIC50 (OCI-LY7 cells): > 6.30
SMILES: C=CC(=O)NCC(=O)Nc1cccc(Nc2ncc3cc(-c4c(C)cc[nH]c4=O)ccc3n2)c1 [Example 10]

pIC50 (Btk): > 7.00
pIC50 (OCI-LY7 cells): > 6.30
SMILES: Cc1cc[nH]c(=O)c1-c1ccc2nc(Nc3cccc(NC(=O)CCN(C)C)c3)ncc2c1 [Example 11]

pIC50 (Btk): > 7.00
pIC50 (OCI-LY7 cells): > 6.30
SMILES: Cc1cc[nH]c(=O)c1-c1ccc2nc(Nc3cccc(NC(=O)[C@@H](N)C(C)C)c3)ncc2c1 [Example 18]

pIC50 (Btk): > 7.00
pIC50 (OCI-LY7 cells): > 6.30
SMILES: C=CC(=O)N[C@H](C(=O)Nc1cccc(Nc2ncc3cc(-c4c(C)cc[nH]c4=O)ccc3n2)c1)C(C)C [Example 19]
inhibitory effects against Btk (in words) (Btk): particularly excellent inhibitory effects

pIC50 (Btk): 6.00 to 7.00
pIC50 (OCI-LY7 cells): 5.60 to 6.30
SMILES: Cc1cc[nH]c(=O)c1-c1ccc2nc(Nc3cccc(NC(=O)[C@@H]4CCCN4)c3)ncc2c1 [Example 20]

pIC50 (Btk): > 7.00
pIC50 (OCI-LY7 cells): > 6.30
SMILES: CNc1cccc(Nc2ncc3cc(-c4c(C)cc[nH]c4=O)ccc3n2)c1 [Example 22]

pIC50 (Btk): > 7.00
pIC50 (OCI-LY7 cells): > 6.30
SMILES: CCNc1cccc(Nc2ncc3cc(-c4c(C)cc[nH]c4=O)ccc3n2)c1 [Example 25]

pIC50 (Btk): > 7.00
pIC50 (OCI-LY7 cells): > 6.30
SMILES: C=CC(=O)N(c1cccc(Nc2ncc3cc(-c4c(C)cc[nH]c4=O)ccc3n2)c1)C(C)C [Example 27]

pIC50 (Btk): > 7.00
pIC50 (OCI-LY7 cells): > 6.30
SMILES: CC#CC(=O)N(CC)c1cccc(Nc2ncc3cc(-c4c(C)cc[nH]c4=O)ccc3n2)c1 [Example 33]
inhibitory effects against Btk (in words) (Btk): particularly excellent inhibitory effects

pIC50 (Btk): > 7.00
pIC50 (OCI-LY7 cells): > 6.30
SMILES: C=C(F)C(=O)N(CC)c1cccc(Nc2ncc3cc(-c4c(C)cc[nH]c4=O)ccc3n2)c1 [Example 35]

pIC50 (Btk): > 7.00
pIC50 (OCI-LY7 cells): > 6.30
SMILES: C=CC(=O)N(CCOC)c1cccc(Nc2ncc3cc(-c4c(C)cc[nH]c4=O)ccc3n2)c1 [Example 38]
inhibitory effects against Btk (in words) (Btk): particularly excellent inhibitory effects

pIC50 (Btk): > 7.00
pIC50 (OCI-LY7 cells): ≤ 5.60
SMILES: C=CC(=O)N(CCN(C)C)c1cccc(Nc2ncc3cc(-c4c(C)cc[nH]c4=O)ccc3n2)c1 [Example 43]

pIC50 (Btk): > 7.00
pIC50 (OCI-LY7 cells): > 6.30
SMILES: [2H]C([2H])([2H])N(C(=O)C=C)c1cccc(Nc2ncc3cc(-c4c(C)cc[nH]c4=O)ccc3n2)c1 [Example 44]
inhibitory effects against Btk (in words) (Btk): particularly excellent inhibitory effects
